From US12077503B2, “Substituted cyclic amides and their use as herbicides” (FMC CORPORATION, priority 2015, dated 2024)

Tests used:
Format in all cases: in vivo
[1] = system: ragweed (common ragweed, Ambrosia elatior); test: Test A postemergence
Summary of the method: (§1)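 Seeded soil received test chemicals as a preemergence directed spray, and seedlings at one to two leaves, 2–10 cm tall, received them postemergence, in a non-phytotoxic, surfactant-containing solvent mixture. Pots were held in a greenhouse for approximately 10 d, then rated for injury from 0, no effect, to 100, complete control.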

[2] = system: wheat (Triticum aestivum); test: Test A postemergence
Summary of the method: as §1

[3] = system: giant foxtail (Setaria faberii); test: Test A postemergence
Summary of the method: as §1

[4] = system: Galium (catchweed bedstraw, Galium aparine); test: Test A postemergence
Summary of the method: as §1

[5] = system: ryegrass, Italian (Italian ryegrass, Lolium multiflorum); test: Test A postemergence
Summary of the method: as §1

[6] = system: blackgrass (Alopecurus myosuroides); test: Test A postemergence
Summary of the method: as §1

corn (Zea mays) = test: Test A postemergence
Summary of the method: as §1

[7] = system: pigweed (Amaranthus retroflexus); test: Test A postemergence
Summary of the method: as §1

[8] = system: barnyardgrass (Echinochloa crus-galli); test: Test A postemergence
Summary of the method: as §1

Kochia (Kochia scoparia) [9] = test: Test A postemergence
Summary of the method: as §1

[10] = system: ragweed (common ragweed, Ambrosia elatior); test: Test A preemergence; conditions: Preemergence; for Plant response rating, Ragweed: 125 g ai/ha, visual injury after approximately 10 d, 0 to 100 scale where 0 is no effect and 100 is complete control; for Ragweed plant response rating (0 to 100 scale, 0 is no effect, 100 is complete control): 500 g ai/ha, visual injury approx. 10 d
Summary of the method: as §1

[11] = system: giant foxtail (Setaria faberii); test: Test A preemergence; conditions: Preemergence; for Plant response rating, Foxtail, Giant: 125 g ai/ha, visual injury after approximately 10 d, 0 to 100 scale where 0 is no effect and 100 is complete control; for Foxtail, Giant plant response rating (0 to 100 scale, 0 is no effect, 100 is complete control): 500 g ai/ha, visual injury approx. 10 d
Summary of the method: as §1

[12] = system: ryegrass, Italian (Italian ryegrass, Lolium multiflorum); test: Test A preemergence; conditions: Preemergence; for Plant response rating, Ryegrass, Italian: 125 g ai/ha, visual injury after approximately 10 d, 0 to 100 scale where 0 is no effect and 100 is complete control; for Ryegrass, Italian plant response rating (0 to 100 scale, 0 is no effect, 100 is complete control): 500 g ai/ha, visual injury approx. 10 d
Summary of the method: as §1

[13] = system: pigweed (Amaranthus retroflexus); test: Test A preemergence; conditions: Preemergence; for Plant response rating, Pigweed: 125 g ai/ha, visual injury after approximately 10 d, 0 to 100 scale where 0 is no effect and 100 is complete control; for Pigweed plant response rating (0 to 100 scale, 0 is no effect, 100 is complete control): 500 g ai/ha, visual injury approx. 10 d
[14] = system: barnyardgrass (Echinochloa crus-galli); test: Test A preemergence; conditions: Preemergence; for Plant response rating, Barnyardgrass: 125 g ai/ha, visual injury after approximately 10 d, 0 to 100 scale where 0 is no effect and 100 is complete control; for Barnyardgrass plant response rating (0 to 100 scale, 0 is no effect, 100 is complete control): 500 g ai/ha, visual injury approx. 10 d
Summary of the method: as §1

Kochia (Kochia scoparia) [15] = test: Test A preemergence; conditions: Preemergence; for Plant response rating, Kochia: 125 g ai/ha, visual injury after approximately 10 d, 0 to 100 scale where 0 is no effect and 100 is complete control; for Kochia plant response rating (0 to 100 scale, 0 is no effect, 100 is complete control): 500 g ai/ha, visual injury approx. 10 d
Summary of the method: as §1

rice (Oryra sativa) = test: Test B flooded paddy test; conditions: Flood, 250 g ai/ha; 0 to 100 scale where 0 is no effect and 100 is complete control; 13 to 15 d
Summary of the method: (§2)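 Evaluation by eye, against controls, occurred 13–15 d post-treatment in a greenhouse, using a 0 (no effect) to 100 (complete control) scale. Application was into the paddy water, 3 cm deep over the soil, on 2-leaf plants.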

[16] = system: sedge, umbrella (small-flower umbrella sedge, Cyperus difformis); test: Test B flooded paddy test; conditions: Flood, 250 g ai/ha; 0 to 100 scale where 0 is no effect and 100 is complete control; 13 to 15 d
Summary of the method: as §2

[17] = system: barnyardgrass (Echinochloa crus-galli); test: Test B flooded paddy test; conditions: Flood, 250 g ai/ha; 0 to 100 scale where 0 is no effect and 100 is complete control; 13 to 15 d
Summary of the method: as §2

[18] = system: ducksalad (Heteranthera limosa); test: Test B flooded paddy test; conditions: Flood, 250 g ai/ha; 0 to 100 scale where 0 is no effect and 100 is complete control; 13 to 15 d
Summary of the method: as §2

[19] = 125 g ai/ha, postemergence, visual rating after approx. 10 d, 0 to 100 scale (0 no effect, 100 complete control)
[20] = Postemergence, 500 g ai/ha, 0 to 100 scale where 0 is no effect and 100 is complete control

Row | SMILES | Plant response rating, Ragweed [1, 19] | Plant response rating, Ragweed [1, 20] | Plant response rating, Wheat [2, 19] | Plant response rating, Wheat [2, 20] | Plant response rating, Foxtail, Giant [3, 19] | Plant response rating, Foxtail, Giant [3, 20] | Plant response rating, Galium [4, 19] | Plant response rating, Galium [4, 20] | Plant response rating, Ryegrass, Italian [5, 19] | Plant response rating, Ryegrass, Italian [5, 20] | Plant response rating, Blackgrass [6, 19] | Plant response rating, Blackgrass [6, 20] | Plant response rating, Corn (corn (Zea mays); [19]) | Plant response rating, Corn (corn (Zea mays); [20]) | Plant response rating, Pigweed [7, 19] | Plant response rating, Pigweed [7, 20] | Plant response rating, Barnyardgrass [8, 19] | Plant response rating, Barnyardgrass [8, 20] | Plant response rating, Kochia (Kochia (Kochia scoparia) [9]; [19]) | Plant response rating, Kochia (Kochia (Kochia scoparia) [9]; [20]) | also measured
1 | O=C1NCC(c2cc(F)ccc2F)C1C(=O)Nc1cccc(F)c1F (racemic) [Compound 546] | 0 | 0 | 0 | 0 | 70 | 90 | 0 | 0 | 0 | 0 | 0 | 20 | 0 | 20 | 0 | 0 | 80 | 90 | 0 | 0 | Plant response rating, Ragweed [10]: 0; Ragweed plant response rating (0 to 100 scale, 0 is no effect, 100 is complete control) [10]: 0; Plant response rating, Foxtail, Giant [11]: 90; Foxtail, Giant plant response rating (0 to 100 scale, 0 is no effect, 100 is complete control) [11]: 90; Plant response rating, Ryegrass, Italian [12]: 0; Ryegrass, Italian plant response rating (0 to 100 scale, 0 is no effect, 100 is complete control) [12]: 0; Plant response rating, Pigweed [13]: 0; Pigweed plant response rating (0 to 100 scale, 0 is no effect, 100 is complete control) [13]: 0; Plant response rating, Barnyardgrass [14]: 80; Barnyardgrass plant response rating (0 to 100 scale, 0 is no effect, 100 is complete control) [14]: 90; Plant response rating, Kochia (Kochia (Kochia scoparia) [15]): 0; Kochia plant response rating (0 to 100 scale, 0 is no effect, 100 is complete control) (Kochia (Kochia scoparia) [15]): 0; Plant response rating, Rice (rice (Oryra sativa)): 20; Plant response rating, Sedge, Umbrella [16]: 0; Plant response rating, Barnyardgrass [17]: 70; Plant response rating, Ducksalad [18]: 85
2 | O=C1NCC(c2cc(F)c(F)cc2F)C1C(=O)Nc1ccccc1F (racemic) [Compound 549] | 0 | 0 | 0 | 20 | 20 | 90 | 0 | 0 | 0 | 0 | 0 | 20 | 0 | 0 | 0 | 0 | 40 | 90 | 0 | 20 | Plant response rating, Ragweed [10]: 0; Ragweed plant response rating (0 to 100 scale, 0 is no effect, 100 is complete control) [10]: 0; Plant response rating, Foxtail, Giant [11]: 90; Foxtail, Giant plant response rating (0 to 100 scale, 0 is no effect, 100 is complete control) [11]: 90; Plant response rating, Ryegrass, Italian [12]: 0; Ryegrass, Italian plant response rating (0 to 100 scale, 0 is no effect, 100 is complete control) [12]: 0; Plant response rating, Pigweed [13]: 0; Pigweed plant response rating (0 to 100 scale, 0 is no effect, 100 is complete control) [13]: 0; Plant response rating, Barnyardgrass [14]: 40; Barnyardgrass plant response rating (0 to 100 scale, 0 is no effect, 100 is complete control) [14]: 80; Plant response rating, Kochia (Kochia (Kochia scoparia) [15]): 0; Kochia plant response rating (0 to 100 scale, 0 is no effect, 100 is complete control) (Kochia (Kochia scoparia) [15]): 0; Plant response rating, Rice (rice (Oryra sativa)): 0; Plant response rating, Sedge, Umbrella [16]: 0; Plant response rating, Barnyardgrass [17]: 25; Plant response rating, Ducksalad [18]: 90
3 | O=C1NCC(c2cc(F)c(F)cc2F)C1C(=O)Nc1cccc(F)c1F (racemic) [Compound 550] | 0 | 0 | 0 | 30 | 80 | 90 | 0 | 60 | 0 | 20 | 0 | 50 | 0 | 20 | 0 | 0 | 80 | 90 | 0 | 50 | Plant response rating, Ragweed [10]: 0; Ragweed plant response rating (0 to 100 scale, 0 is no effect, 100 is complete control) [10]: 0; Plant response rating, Foxtail, Giant [11]: 90; Foxtail, Giant plant response rating (0 to 100 scale, 0 is no effect, 100 is complete control) [11]: 90; Plant response rating, Ryegrass, Italian [12]: 0; Ryegrass, Italian plant response rating (0 to 100 scale, 0 is no effect, 100 is complete control) [12]: 20; Plant response rating, Pigweed [13]: 0; Pigweed plant response rating (0 to 100 scale, 0 is no effect, 100 is complete control) [13]: 0; Plant response rating, Barnyardgrass [14]: 40; Barnyardgrass plant response rating (0 to 100 scale, 0 is no effect, 100 is complete control) [14]: 90; Plant response rating, Kochia (Kochia (Kochia scoparia) [15]): 0; Kochia plant response rating (0 to 100 scale, 0 is no effect, 100 is complete control) (Kochia (Kochia scoparia) [15]): 40; Plant response rating, Rice (rice (Oryra sativa)): 50; Plant response rating, Sedge, Umbrella [16]: 0; Plant response rating, Barnyardgrass [17]: 55; Plant response rating, Ducksalad [18]: 95
